# Experimental data as given in US9446061B2, “Composition containing antibiotics and lysophosphatidylcholine for boosting immunity or treatment of bacterial infections” (priority 2011, dated 2016).
# Marks after values point to notes of the source that are not given here.
# Tests used:
# Type in all cases: in vivo, ICR mice
# [1] = tested on: CPA-induced immunosuppressive mice; experiment: Histopathology/histomorphometry of thymus and spleen in CPA-treated mice
# Protocol: After measuring of organ weight, thymus and spleen was sampled. Sampled organs were fixed in 10% neutral buffered formalin. After paraffin embedding, 3-4 μm sections were prepared. Representative sections were stained with Hematoxylin and Eosin (H&E) for light microscopical examination. After that the histological profiles of individual organs were observed.
# The numbers of white pulps in spleen were calculated as N/histological sections (×50) using automated image analysis (analySIS Image Processing; SIS, Germany). In addition, the numbers of atrophic changes on thymic cortex/total observed number of thymus were also calculated.
# [2] = tested on: splenic CD3+, CD4+, CD8+ and TNF-α+ cells; experiment: Immunohistochemistry of spleen in CPA-treated mice
# Protocol: (§1) After deparraffinized, CD3 epitope retrievals were conducted in 10 mM Tris-1 mM EDTA Buffer (pH 9.0), CD4 and CD8 in 1 mM EDTA Buffer (pH 8.0), and TNF-α in 10 mM Citrate Buffer (pH 6.0) as previous methods. Primary anti-antibodies used in the invention were as following table.
# (§2) The water bath with a staining dish, containing a buffer, was preheated until the temperature reached 95-100. The staining dish was placed at room temperature and the slides were cooled for 20 minutes. After epitope retrivals, sections were immunostained as following steps
# (§3) First, the sections were incubated with methanol and 0.3% H2O2 for 30 min to block endogenous peroxidase activity at room temperature, and then rinsed three times in 0.01M phosphate buffered saline (PBS; pH 7.2) for 3 times. Then, the sections were incubated with the normal horse serum blocking solution (Vector Lab. Inc., CA, USA., dilution 1:100) for 1 hr at room temperature in a humidity chamber, to block non-specific binding of immunoglobulin, and then rinsed three times in 0.01M PBS. The sections were incubated with four types of primary antisera for 12 hrs at 4 in a humidity chamber, and then rinsed three times in 0.01M PBS. The sections were incubated with universal biotinylated secondary antibody for 1 hr at room temperature in a humidity chamber, and then rinsed three times in 0.01M PBS. The sections were incubated with ABC reagents (Vectastain Elite ABC Kit, Vector Lab. Inc., CA, USA. Dilution 1:50) for 1 hr at room temperature in a humidity chamber, and then rinsed three times in 0.01M PBS. The sections were incubated in the peroxidase substrate kit (Vector Lab. Inc., CA) for 30 seconds at room temperature, and then rinsed three times in 0.01M PBS. The sections were counterstained with the Mayer's hematoxylin solution, and then rinsed in running tap water for 30 minutes. The sections were dehydrated through 95% ethanol for 2 min and 100% ethanol for […], and then rinsed in xylene for 2 hrs. After that, the sections were observed using a cover slip with permanent mounting medium under the light microscope (Zeiss, Germany).
# (§4) Histomorphometry—Among 1000 splenic or thymic cells, the numbers (N) of immunoreactive cells (CD3+, CD4+, CD8+, and TNF-α+) were observed as N/1000 splenocytes or thymocytes using automated image analysis. In thymus, the counts were conducted in the both cortex and medulla separately.
# [3] = tested on: CPA-induced immunosuppressive mice; experiment: Thymus and spleen organ weights in CPA-treated mice; details: LPC 1, DW286 0.5, Mix 0.75 mg/kg
# Protocol: At sacrifice of CPA-treated model, the wet-weights of spleen and thymus were measured and regarded as absolute weight and then relative organ weight (% of body weight) was calculated as follow:
# =[(Absolute organ weights/Body weight at sacrifice individual)×100]
# [4] = tested on: CPA-CLP mice; experiment: Mortality of CPA-CLP mice, LPC and DW286AA alone or combined (Example 9); s.c. 4 times 12-hr intervals from 6 hrs after CLP; details: for Survival rate: LPC 1, DW286 0.5, Mix 0.75 mg/kg; for survival rates (survivors/total in brackets), Table 13: mg/kg: LPC 1, LPC + DW286 0.5 + 0.25, DW286/LPC 0.5/1.0, LPC/DW286 1.0/0.5, DW286 0.5
# Source text: CPA is well known as an immunosuppressive agent. […] Then, the abdomen was closed following the general procedure.
# [5] = tested on: thymic CD3+, CD4+, CD8+ and TNF-α+ cells; experiment: Immunohistochemistry of thymus (cortex and medulla) in CPA-treated mice
# Protocol: as §1, §2, §3, §4
# [6] = LPC 1, DW286 0.5, Mix 0.75 mg/kg
# [7] = spleen, CPA-treated mice, Mean ± S.D., n = 9
# [8] = thymus cortex, CPA-treated mice, Mean ± S.D., n = 9
# [9] = thymus medulla, CPA-treated mice, Mean ± S.D., n = 9
substance,measurement,setting,value
Lysophosphatidylcholine [LPC],"atrophic changes (decreases in lymphoid cells in the thymic cortex), FIG. 7","[1]; CPA-treated model, in words",effectively inhibited
same,"splenic atrophy and decrease in lymphoid cells, FIG. 8","[1]; CPA-treated model, in words",effectively inhibited
same,Spleen: Number of white pulps,[1]; [6],"12.56 ± 1.81*^,# N/histological sections"
same,Thymus: Incidences of thymic cortex atrophy (atrophic changes/total observed number of thymus),[1]; [6],8/9 (88.89%)
same,incidences of decrease of lymphoid cells in the thymic cortex,[1]; [6],88.89%
same,"numbers of white pulps of spleen, change compared to CPA control",[1]; [6],101.79%
same,"numbers of splenic CD3+ cells, change compared to CPA control",[2]; [6],18.29%
same,"numbers of splenic CD4+ cells, change compared to CPA control",[2]; [6],136.54%
same,"numbers of splenic CD8+ cells, change compared to CPA control",[2]; [6],72.89%
same,"splenic TNF-α+ cells, change compared to CPA control",[2]; [6],36.75%
same,"CD3+ cells, Spleen (IHC-Histomorphometry)",[2]; [7],"76.89 ± 6.23*^,## N/1000 splenocytes or thymocytes"
same,"CD4+ cells, Spleen (IHC-Histomorphometry)",[2]; [7],"109.33 ± 20.77*^,# N/1000 splenocytes or thymocytes"
same,"CD8+ cells, Spleen (IHC-Histomorphometry)",[2]; [7],"88.56 ± 11.18*^,# N/1000 splenocytes or thymocytes"
same,"TNF-α+ cells, Spleen (IHC-Histomorphometry)",[2]; [7],"63.67 ± 9.10*^,# N/1000 splenocytes or thymocytes"
same,"Spleen weight, Relative",[3]; % of body weight at sacrifice,"0.178 ± 0.018*^,# %"
same,"Thymus weight, Relative",[3]; % of body weight at sacrifice,0.099 ± 0.017 %
same,"absolute splenic weights, change compared to CPA control",[3],35.62%
same,"absolute thymic weights, change compared to CPA control",[3],13.31%
same,"relative splenic weights, change compared to CPA control",[3],40.69%
same,"relative thymic weights, change compared to CPA control",[3],17.56%
same,"Spleen weight, Absolute",[3]; at sacrifice,"0.066 ± 0.007*^,# g"
same,"Thymus weight, Absolute",[3]; at sacrifice,0.037 ± 0.007 g
same,Survival rate,[4]; 1 day after CLP,55.55%
same,"survival rates (survivors/total in brackets), Table 13",[4]; 1 day after dosing,56 (5/9)
same,Survival rate,[4]; 2 days after CLP,33.33%
same,"survival rates (survivors/total in brackets), Table 13",[4]; 2 days after dosing,33 (3/9)
same,Survival rate,[4]; 3 days after CLP,22.22%
same,"survival rates (survivors/total in brackets), Table 13",[4]; 3 days after dosing,22 (2/9)
same,Survival rate,[4]; 4 days after CLP,0%
same,"survival rates (survivors/total in brackets), Table 13",[4]; 4 days after dosing,0 (0/9)
same,Survival rate,[4]; 5 days after CLP,0%
same,Survival rate,[4]; At CLP,100%
same,"survival rates (survivors/total in brackets), Table 13",[4]; Dosing Day 0,100 (9/9)
same,Survival rate,[4]; Total,0%
same,"numbers of thymic cortex CD3+ cells, change compared to CPA control",[5]; [6],328.69%
same,"numbers of thymic cortex CD4+ cells, change compared to CPA control",[5]; [6],408.70%
same,"numbers of thymic cortex CD8+ cells, change compared to CPA control",[5]; [6],11.11%
same,"numbers of thymic medulla CD3+ cells, change compared to CPA control",[5]; [6],12466.67%
same,"numbers of thymic medulla CD4+ cells, change compared to CPA control",[5]; [6],−9.09%
same,"numbers of thymic medulla CD8+ cells, change compared to CPA control",[5]; [6],−5.56%
same,"thymic cortex TNF-α+ cells, change compared to CPA control",[5]; [6],65.22%
same,"thymic medulla TNF-α+ cells, change compared to CPA control",[5]; [6],133.33%
same,"CD3+ cells, Thymus: Cortex (IHC-Histomorphometry)",[5]; [8],780.22 ± 85.78 N/1000 splenocytes or thymocytes
same,"CD4+ cells, Thymus: Cortex (IHC-Histomorphometry)",[5]; [8],"13.00 ± 2.45*^,# N/1000 splenocytes or thymocytes"
same,"CD8+ cells, Thymus: Cortex (IHC-Histomorphometry)",[5]; [8],3.33 ± 1.22 N/1000 splenocytes or thymocytes
same,"TNF-α+ cells, Thymus: Cortex (IHC-Histomorphometry)",[5]; [8],4.22 ± 1.20 N/1000 splenocytes or thymocytes
same,"CD3+ cells, Thymus: Medulla (IHC-Histomorphometry)",[5]; [9],"41.89 ± 10.23*^,# N/1000 splenocytes or thymocytes"
same,"CD4+ cells, Thymus: Medulla (IHC-Histomorphometry)",[5]; [9],2.22 ± 0.97 N/1000 splenocytes or thymocytes
same,"CD8+ cells, Thymus: Medulla (IHC-Histomorphometry)",[5]; [9],1.89 ± 0.60 N/1000 splenocytes or thymocytes
same,"TNF-α+ cells, Thymus: Medulla (IHC-Histomorphometry)",[5]; [9],1.33 ± 1.00 N/1000 splenocytes or thymocytes
